Row | SMILES | boiling point [°C] | melting point [°C] | further results
1 | C=CC[Si](Cl)(Cl)Cl | 118 | 35 | log10 vapour pressure (mmHg): 1.25
2 | Brc1cccc(I)c1 | 252 | -9.3 | –
3 | [O-][N+](=Nc1ccccc1)c1ccccc1 | – | 36 | log10 Koc (L/kg): 3.5
4 | CCO[Si](Cl)(OCC)OCC | 156 | -51 | –
5 | CCOC(=O)C(=O)Nc1ccccc1 | 280 | 65.5 | –
6 | C[C@H](N)Cc1ccccc1 | 203 | – | –
7 | Cc1c(N)c(=O)n(-c2ccccc2)n1C | – | 109 | –
8 | FC1(F)C(Cl)=C(Cl)C(F)(F)C(F)(F)C1(F)F | 113 | -70 | –
9 | CCOc1cccc(C(=O)O)c1 | – | 137 | –
10 | CCCC(=O)CCC | 144 | -33 | log10 vapour pressure (mmHg): 0.787
11 | CCC(C)C1CCCCC1 (configuration not stated) | 179 | – | log10 vapour pressure (mmHg): 0.37
12 | CCCOP(=S)(OCCC)SCC(=O)N1CCCCC1C (configuration not stated) | – | – | log10 Koc (L/kg): 3.44; log10 vapour pressure (mmHg): -6.62
13 | Cc1c(F)c(F)cc(F)c1F | 126 | – | –
14 | CC(C)(N=C=O)c1cccc(C(C)(C)N=C=O)c1 | – | – | log10 vapour pressure (mmHg): -2.49
15 | c1ccc(CSCc2ccccc2)cc1 | – | 49.5 | –
16 | NC(=O)CC[C@H](N)C(=O)O | – | – | ready biodegradability: readily biodegradable
17 | CC(CO)(CO)C(=O)O | – | 190 | –
18 | COc1cc(C)ccc1C | 194 | – | –
19 | CCCCCCCC/C=C\CCCCCCCC(=O)OCC(O)CO (configuration not stated) | – | 35 | ready biodegradability: readily biodegradable
20 | CCCCCC | – | – | log10 Koa: 2.4; log10 biodegradation half-life (days): 0.954; log10 vapour pressure (mmHg): 2.18; ready biodegradability: readily biodegradable
21 | Cc1cccc([N+](=O)[O-])c1N | – | 96 | –
22 | OCCCCCCO | 250 | 45 | log10 vapour pressure (mmHg): -3.3
23 | CC1(C)CNC(=NN=C(/C=C/c2ccc(C(F)(F)F)cc2)/C=C/c2ccc(C(F)(F)F)cc2)NC1 | – | 188 | log10 Koc (L/kg): 5.86; log10 vapour pressure (mmHg): -7.69

Row | SMILES | boiling point [°C] | melting point [°C] | further results
24 | COc1ccc(C=CC(=O)c2ccc(OC)cc2OC)cc1 | – | 97 | –
25 | Fc1cc(F)c(F)c(-c2c(F)c(F)cc(F)c2F)c1F | – | 85 | –
26 | CC(CCl)CCCl (configuration not stated) | 168 | – | –
27 | C=CCC(C(C)=O)C(=O)OCC (configuration not stated) | 208 | – | –
28 | Nc1ncnc2[nH]cnc12 | – | – | log10 vapour pressure (mmHg): -10.4
29 | O=S1(=O)CCCO1 | – | 31.5 | ready biodegradability: readily biodegradable
30 | O=[Se](O)c1ccccc1 | – | 124 | –
31 | OB(O)c1ccccc1 | – | 219 | –
32 | C1=CCCC=CCC1 | 151 | -56.4 | log10 vapour pressure (mmHg): 0.695
33 | COC(=O)c1ccccc1S(=O)(=O)NC(=O)N(C)c1nc(C)nc(OC)n1 | – | 141 | log10 Henry constant (atm·m³/mol): -13; log10 Koc (L/kg): 1.72; log10 vapour pressure (mmHg): -9.41
34 | ClCCCOc1ccccc1 | 250 | 12 | –
35 | O=C(O)CS(=O)(=O)CC(=O)O | – | 182 | –
36 | CC(C)(Cl)CCC(C)(C)Cl | – | 67.5 | –
37 | Oc1c(F)c(F)c(C(F)(F)F)c(F)c1F | 164 | – | –
38 | O=S(=O)(O)c1ccc(Nc2ccccc2)cc1 | – | 206 | –
39 | C=CC#CCCC | 110 | – | –
40 | Cc1ccc(-c2cc(C(F)(F)F)nn2-c2ccc(S(N)(=O)=O)cc2)cc1 | – | 158 | –
41 | O=C1c2cccc([N+](=O)[O-])c2C(=O)c2cccc([N+](=O)[O-])c21 | – | 385 | –
42 | CNC(=C[N+](=O)[O-])NCCSCc1csc(CN(C)C)n1 | – | 131 | –
43 | CC(C)OC(OC(C)C)OC(C)C | 167 | – | –
44 | C#CC(C)O (configuration not stated) | 106 | -3 | –
45 | O=C(O)CCCCCCBr | 280 | 31 | ready biodegradability: readily biodegradable
46 | CN(C)C(=S)SC(=S)N(C)C | – | 110 | –

Row | SMILES | boiling point [°C] | melting point [°C] | further results
47 | COc1ccc2nc(N)sc2c1 | – | 166 | –
48 | CC(C)NCC(O)c1ccc([N+](=O)[O-])cc1 (configuration not stated) | – | 98 | –
49 | CC(=O)NCCO | – | 16 | –
50 | CCOP(=S)(Oc1ccc(C#N)cc1)c1ccccc1 (configuration not stated) | – | 83 | –
51 | O=P(OC(Cl)CCCl)(OC(Cl)CCCl)OC(Cl)CCCl (configuration not stated) | – | 26.7 | –
52 | COCC(=O)Cl | 112 | – | –
53 | Oc1cc(F)cc(F)c1F | – | 29 | –
54 | Cc1ncc([N+](=O)[O-])n1CC(C)O (configuration not stated) | – | 76 | –
55 | Cc1ccno1 | 122 | – | –
56 | O=C(Cl)CCCCCCCCC(=O)Cl | – | -2.5 | –
57 | CCCCCCCCCCCCCCCCCCCC | 343 | 36.8 | log10 biodegradation half-life (days): 1.4; log10 vapour pressure (mmHg): -5.34; ready biodegradability: readily biodegradable
58 | CCOc1ccc(C=O)cc1OC | – | 64.5 | –
59 | FCCl | -9.1 | -133 | log10 vapour pressure (mmHg): 3.39
60 | CN[C@@H](C)[C@H](O)c1ccccc1 | 255 | – | –
61 | O=C1CC[C@@H](C(=O)O)N1 | – | 185 | –
62 | C[C@@H]1C[C@H](C)CC(C)(C)C1 | 152 | – | –
63 | O=C1CCCCO1 | 219 | -12.5 | –
64 | CCP(=O)(c1ccccc1)c1ccccc1 | – | 122 | –
65 | CCCC(Br)CBr (configuration not stated) | – | – | log10 vapour pressure (mmHg): 0.153
66 | COC(=O)c1cccc(OC)c1 | 248 | – | –
67 | O=C1c2ccccc2C(=O)C1c1ccc2ccccc2n1 | – | 241 | –
68 | Oc1ccc2ccccc2c1-c1c(O)ccc2ccccc12 | – | 216 | –
69 | Clc1ccccc1-c1ccccc1 | 274 | 34 | log10 Henry constant (atm·m³/mol): -3.13; log10 Koc (L/kg): 3.47; log10 vapour pressure (mmHg): -2.86

Row | SMILES | boiling point [°C] | melting point [°C] | further results
70 | C1=CC=CCCC=C1 | 146 | – | –
71 | COc1cccc(OC)c1C(=O)O | – | – | log10 vapour pressure (mmHg): -6.72
72 | CC(C)ON=O | 40 | – | –
73 | C=C[Si](C)(C)C | 55 | – | –
74 | CC(=O)C(Cl)Cl | 120 | – | log10 vapour pressure (mmHg): 1.43
75 | Nc1ccc(C=O)cc1 | – | 71.5 | –
76 | Fc1cccc(C(F)(F)F)c1 | 102 | -81.5 | –
77 | O=C=Nc1cccc2c(N=C=O)cccc12 | 330 | 130 | log10 vapour pressure (mmHg): -4.47
78 | C[C@]12CC[C@@H]3c4ccc(OC(=O)c5ccccc5)cc4CC[C@H]3[C@@H]1CC[C@@H]2O | – | 196 | –
79 | c1cc2c3c(c4ccc5ccccc5c4cc3c1)CC2 | – | 174 | –
80 | CCOC(=O)c1ccc(O)cc1 | 298 | 117 | log10 Koc (L/kg): 2.21; ready biodegradability: readily biodegradable
81 | C=C1C=CC(C(C)C)CC1 (configuration not stated) | 172 | – | log10 vapour pressure (mmHg): 0.2
82 | Cc1c(Br)cc(Br)c(O)c1Br | – | 84 | –
83 | C1=CC=CCC=C1 | 117 | -79.5 | log10 vapour pressure (mmHg): 1.37
84 | Cc1cc(C)c(Cl)c(C)c1 | 205 | – | –
85 | CCCCCCCCCCCN | 242 | 17 | –
86 | CC[C@@H]1C(=O)OC[C@@H]1Cc1cncn1C | – | 34 | –
87 | COc1cccc(C)c1OC | 204 | – | –
88 | CC(=O)OCC(=O)[C@@]1(O)CC[C@H]2[C@@H]3CCC4=CC(=O)CC[C@]4(C)[C@H]3C(=O)C[C@@]21C | – | 222 | –
89 | C=CC(=O)OCCOC | – | – | ready biodegradability: readily biodegradable
90 | O=C(O)c1cccc(O)c1 | – | 202 | ready biodegradability: readily biodegradable
91 | O=C(Cl)c1cc(C(=O)Cl)cc(C(=O)Cl)c1 | – | 36.3 | –
92 | CCCCCCC(=O)OCC(C)C | 208 | – | –

Row | SMILES | boiling point [°C] | melting point [°C] | further results
93 | CCOc1ccc(C(=O)OCCN(CC)CC)cc1 | – | 173 | –
94 | Cc1cc(C)nc(N)n1 | – | 152 | –
95 | CCCCCCC(C)O (racemic) | 179 | 3.5 | –
96 | Nc1ccccc1I | – | 56.5 | –
97 | CC(COc1ccc(C(C)(C)C)cc1)OS(=O)OCCCl (configuration not stated) | – | -31.7 | –
98 | CCOCCOC(=O)C=Cc1ccc(OC)cc1 | – | -25 | –
99 | C[C@]12CCC(=O)C=C1CC[C@@H]1[C@@H]2[C@@H](O)C[C@@]2(C)[C@H]1CC[C@]2(O)C(=O)CO | – | 218 | –
100 | CNC(C)CC1CCCCC1 (configuration not stated) | 205 | – | –
101 | CC(C)C1=CC2C(C)CC1C1C(=O)OC(=O)C21 (configuration not stated) | – | – | ready biodegradability: not readily biodegradable
102 | COC(=O)C1(S(=O)(=O)c2ccc(Br)cc2)CCC1 | – | 95 | –
103 | C1=C(c2ccccc2)CCCC1 | 252 | -11 | –
104 | Clc1cc(Cl)c(-c2cc(Cl)c(Cl)c(Cl)c2)cc1Cl | – | – | log10 biotransformation half-life (days) (fish): 2.43
105 | CCC1(O)CCCCC1 | 166 | 34.5 | –
106 | C=CCC[C@@H](C)CC | 113 | – | –
107 | O=C(O)C(I)I | – | 110 | –
108 | CC(=O)O[C@@H]1C[C@H](C)CC[C@H]1C(C)C (racemic) | 228 | – | log10 vapour pressure (mmHg): -0.983
109 | CCNNCC | 85.5 | – | log10 Koc (L/kg): 1.18
110 | CCCC(N)C(=O)O (racemic) | – | 305 | –
111 | Cc1cc(CO)c(O)c(CO)c1 | – | 129 | –
112 | COC(=O)c1ccccc1 | 199 | -15 | log10 Koc (L/kg): 2.1; log10 vapour pressure (mmHg): -0.42
113 | F[Si](F)(F)c1ccccc1 | 102 | -18 | –
114 | Clc1cccc2nccc(Cl)c12 | – | 118 | –
115 | CCCOC(=O)c1ccccc1C(=O)OCCC | 318 | – | log10 vapour pressure (mmHg): -3.88

Row | SMILES | boiling point [°C] | melting point [°C] | further results
116 | c1ccc2c(c1)[nH]c1cnccc12 | – | 199 | –
117 | O=C(O)COc1ccc(C(=O)c2cccs2)c(Cl)c1Cl | – | 149 | –
118 | CCCCOc1ccc(OCCCC)cc1 | – | 45.5 | –
119 | CNc1ccc(O)c2c1C(=O)c1c(O)ccc(NC)c1C2=O | – | 217 | –
120 | NC(=O)CCC/N=C(\c1ccc(Cl)cc1)c1cc(F)ccc1O | – | 134 | –
121 | c1ccc(C2CCOCO2)cc1 (configuration not stated) | 247 | – | –
122 | C=C(C)C(=O)OCCN(CC)CC | – | – | ready biodegradability: readily biodegradable
123 | CCN(CC)c1ccc2c(-c3ccccc3C(=O)O)c3ccc(N(CC)CC)cc3[o+]c2c1.[Cl-] | – | 165 | –
124 | COc1cccc(Nc2ccccc2)c1 | – | 73 | –
125 | C#C[C@]1(OC(C)=O)CC[C@H]2[C@@H]3CCC4=CC(=O)CC[C@@H]4[C@H]3CC[C@@]21C | – | 162 | –
126 | COC(=O)OC | 90.5 | 3 | log10 vapour pressure (mmHg): 1.74
127 | CCCc1ssc(=S)c1C | – | 49 | –
128 | O=Cc1ccccc1Cl | 212 | 12.4 | log10 vapour pressure (mmHg): -0.638; ready biodegradability: not readily biodegradable
129 | CCOCC(C)C | 81 | – | –
130 | O=C(OOC(=O)c1ccccc1)c1ccccc1 | – | 105 | ready biodegradability: readily biodegradable
131 | O=[N+]([O-])c1ccco1 | – | 30 | –
132 | c1cocn1 | 69.5 | – | log10 vapour pressure (mmHg): 2.12
133 | CN(C)CCc1c[nH]c2cccc(OP(=O)(O)O)c12 | – | 224 | –
